# Assay results published in patent US4414388A, “1-Oxo-1H-thiazolo[3,2-a]pyrimidine-2-carboxamides” (Pfizer Inc., priority 1981, dated 1983).
# Tests used:
# [1] = tested on: isolated guinea pig ileum; experiment: spasms of isolated guinea pig ileum; conditions: 10^-8 to 10^-4 M
# [2] = tested on: dextran induced release of histamine; experiment: dextran induced release of histamine into the rat peritoneal cavity; type: in vivo; conditions: ip
# From the text: Compound III inhibits dextran induced release of histamine into the rat peritoneal cavity.
# [3] = tested on: pentagastrin-stimulated acid output; experiment: pentagastrin-stimulated acid output in Heidenhain pouch dogs; type: in vivo, dog; conditions: 5 mg/kg, i.v.
# IgG = experiment: passive cutaneous anaphylaxis (PCA) test, oral, IgG (hyperimmune antiserum) site; type: in vivo, rat; conditions: Table I, 1 mg./kg.
# Method: The antiallergy property of the compounds of this invention is evaluated by the passive cutaneous anaphylaxis (PCA) test (Ovary, J. Immun., 81, 355, 1958). In the PCA test, normal animals are injected intradermally (i.d.) with antibodies contained in serum obtained from actively sensitized animals. The animals are then challenged intravenously with antigen mixed with a dye such as Evans' Blue. The increased capillary permeability caused by the antigen-antibody reaction causes the dye to leak from the site of the antibody injection. The test animals are then asphyxiated and the intensity of the reaction determined by measuring the diameter and intensity of the blue coloration on the inner surface of the animals' skin.
# The PCA test is a measure of the anti-allergic (especially anti-asthmatic) activity of a compound. Compounds which inhibit a positive PCA test induced by the rat immunochemical counterpart of human immunoglobulin E (IgE), or reagin, are considered to have anti-allergic activity (C. Mota, Ann. N.Y. Acad. Sci., 103, 264 1963). (Reagin is primarily immunoglobulin E [IgE] and is the principal immunoglobulin responsible for allergic asthma, anaphylaxis, hay fever, food sensitivities and certain manifestations of drug sensitivities, although recent evidence ascribes to the IgG class of antibodies a significant role in the mediation of allergic diseases). Such compounds when administered to a sensitized subject, human or animal, prior to the time when the subject comes into contact with antigens or substances to which it is allergic, will prevent the allergic reaction which would otherwise occur. They, therefore, provide a method for the prophylactic treatment of allergy or anaphylactic reactions of a reagin mediated nature.
# To put it another way, such compounds block the release of mediators resulting from the antigen-antibody (allergic) reaction as illustrated in the PCA test using rat homocytotropic antibody--a known correlate of human reaginic antibody. Inhibition of reaginic antigen-antibody reactions in rats, the test animal of the PCA test, is regarded as representative of inhibition of human reaginic antigen-antibody reactions which occur during allergic episodes.
# The ability of agents to interfere with PCA reactions is measured in male Charles River Wistar rats, 170-210 g. Reaginic antiserum, rich in IgE antibodies, is prepared according to Petillo et al., Int. Arch. Allergy, 44, 309 (1973). Hyperimmune antiserum rich in IgG antibodies to hen egg albumin is prepared according to Orange et al., J. Exptl. Med., 127, 767 (1968). Forty-eight hours prior to antigen challenge, the reaginic antiserum is injected intradermally (i.d.) into the shaved skin of a normal rat's back; 5 hours before challenge the hyperimmune antisera is similarly injected. At a third site 60 mcg. histamine dihydrochloride and 0.5 mcg. serotonin creatinine sulfate are injected i.d. just prior to antigen challenge as a check for antihistaminic, antiserotonin and unspecific types of blockage; the compounds of the instant invention or saline are then administered i.v. and immediately followed by the challenge of 5 mg. egg albumen and 2.5 mg. Evans' Blue dye in saline. In the case of oral administration Evans' Blue dye and egg albumin are given 5 minutes after administration of the drug. Thirty minutes later the animals are asphyxiated using chloroform and the skin of the back removed and reversed for observation. A score is assigned each injection site equal to the product of the diameter of the site in mm. and a grade of 0.1, 0.5, 1, 2, 3 or 4 proportional to intensity of dye coloration. The scores for a given injection site are summed for each group of five animals and compared to the saline treated controls. The difference is expressed as percent blockage due to the compound employed. […]
# histamine and serotonin = experiment: cutaneous permeability caused by intradermal exogenous histamine and serotonin; type: in vivo, rat
# Method: The ability of agents to interfere with PCA reactions is measured in male Charles River Wistar rats, 170-210 g. Reaginic antiserum, rich in IgE antibodies, is prepared according to Petillo et al., Int. Arch. Allergy, 44, 309 (1973). Hyperimmune antiserum rich in IgG antibodies to hen egg albumin is prepared according to Orange et al., J. Exptl. Med., 127, 767 (1968). Forty-eight hours prior to antigen challenge, the reaginic antiserum is injected intradermally (i.d.) into the shaved skin of a normal rat's back; 5 hours before challenge the hyperimmune antisera is similarly injected. At a third site 60 mcg. histamine dihydrochloride and 0.5 mcg. serotonin creatinine sulfate are injected i.d. just prior to antigen challenge as a check for antihistaminic, antiserotonin and unspecific types of blockage; the compounds of the instant invention or saline are then administered i.v. and immediately followed by the challenge of 5 mg. egg albumen and 2.5 mg. Evans' Blue dye in saline. In the case of oral administration Evans' Blue dye and egg albumin are given 5 minutes after administration of the drug. Thirty minutes later the animals are asphyxiated using chloroform and the skin of the back removed and reversed for observation. […] The difference is expressed as percent blockage due to the compound employed.
# bone marrow = experiment: chromosomal damage in bone marrow of mice; type: in vivo, mouse; conditions: single oral dose 40 mg/kg; 6, 12 or 24 hours
# Method: Single oral doses of III, 40 mg/kg, were administered to groups of mice who were sacrificed 6, 12 or 24 hours later. […] From these findings, it is evident that III has no obvious mutagenic potential.
# blood glucose = blood glucose levels in fasted rats; type: in vivo, rat; conditions: oral, 10, 30 or 100 mg/kg; fasted 24 hours
# human lymphocytes = experiment: chromosomal breakage in human lymphocytes in vitro; type: cell-based; conditions: 1000, 100, 10 or 0 μg/ml
# mice = experiment: acute subcutaneous toleration in mice; conditions: mouse, in vivo
# Method: (§1) Compound III was administered subcutaneously to mice at doses of 100, 300 or 1000 mg/kg.
# [4] = acute subcutaneous toleration in mice; conditions: mouse, in vivo, sc; subcutaneous, mice
# Method: as §1
# dogs = experiment: dogs, intravenous five days, serum enzymes; type: in vivo, dog; conditions: i.v. five days at 1, 3, 10, 3 and 3 mg/kg
compound,measurement,setting,value
"O=C(Nc1nnn[nH]1)c1cnc2sc3c(n2c1=O)CCCC3 [compound III, N-(5-tetrazolyl)-1-oxo-1H-cyclohexenothiazolo[3,2-a]pyrimidine-2-carboxamide]",antagonism of spasms of isolated guinea pig ileum induced with acetylcholine,[1]; acetylcholine,does not antagonize spasms
same,antagonism of spasms of isolated guinea pig ileum induced with histamine,[1]; histamine,does not antagonize spasms
same,antagonism of spasms of isolated guinea pig ileum induced with SRS-A,[1]; slow reacting substance of anaphylaxis (SRS-A),does not antagonize spasms
same,ED50,[2],0.00033 mg/kg
same,pentagastrin-stimulated acid output,[3],does not affect pentagastrin-stimulated acid output
same,"Oral Activity (% of Protection) of Amides in the PCA Test, IgG 1 mg./kg.",IgG,45%
same,changes in permeability caused by intradermal histamine and serotonin,"histamine and serotonin; exogenous histamine and serotonin, intradermal",does not interfere with the changes in permeability
same,antihistaminic and antiserotonin effects,"histamine and serotonin; rat, in vivo",absence of antihistaminic and antiserotonin effects
same,"chromosomal damage in bone marrow, single dose",bone marrow,did not reveal any chromosomal damage
same,changes in blood glucose levels,blood glucose,did not exhibit any changes in blood glucose levels
same,chromosomal breakage in human lymphocytes,human lymphocytes,failed to reveal any significant drug-induced chromosomal breakage
same,symptoms or lethality,mice,No symptoms or lethality was observed
same,LD50,[4],> 1000 mg/kg
same,serum enzyme levels,dogs,remained normal
